In PubChem BioAssay (NCI):
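96-well plates; 48 h exposure; 5 concentrations. Endpoints by linear interpolation between flanking doses. Not reached: highest tested concentration assigned. The concentration for 50% growth inhibition is given as GI50. The concentration for full growth arrest is given as TGI.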

Tests used:
Assay in all cases: NCI anticancer screen, dose series, 48 h
MCF7 breast = tested on: MCF7 breast
SN12C renal = tested on: SN12C renal
NCI-H460 lung = tested on: NCI-H460 lung
UACC-62 melanoma = tested on: UACC-62 melanoma
A498 renal = tested on: A498 renal
M14 melanoma = tested on: M14 melanoma
HS 578T breast = tested on: HS 578T breast
HOP-92 NSCLC = tested on: HOP-92 NSCLC

Structure (SMILES) | GI50 (MCF7 breast) [µM] | TGI (MCF7 breast) [µM] | GI50 (SN12C renal) [µM] | TGI (SN12C renal) [µM] | GI50 (NCI-H460 lung) [µM] | TGI (NCI-H460 lung) [µM] | GI50 (UACC-62 melanoma) [µM] | TGI (UACC-62 melanoma) [µM] | GI50 (A498 renal) [µM] | TGI (A498 renal) [µM] | GI50 (M14 melanoma) [µM] | TGI (M14 melanoma) [µM] | GI50 (HS 578T breast) [µM] | TGI (HS 578T breast) [µM] | TGI (HOP-92 NSCLC) [µM] | GI50 (HOP-92 NSCLC) [µM]
CCCCCCCCCCCCCCCC1=NCC[N+]1(CCO)CCO | 3.46 | 14 | 1.85 | 3.92 | 1.84 | 3.47 | 1.77 | 3.27 | 7.79 | 21.6 | 1.62 | 3.01 | 2.51 | 7.17 |  | 
Cc1nc([N+](=O)[O-])cn1-c1nc2ccccn2c1[N+](=O)[O-] |  | > 100 |  | > 100 |  | > 100 |  | > 100 |  | > 100 |  | > 100 |  | > 100 | > 100 | 
O=c1oc2ccc(I)cc2c(=O)n1-c1ccc(Br)cc1F | 1.34 | 9.22 | 0.546 | 5.7 | 0.5 | 10.6 | 0.31 | 1.17 | 0.225 | 0.697 | 0.725 | 4.99 | 0.345 | 3.14 | 0.634 | 0.207
O=c1c2ccccc2sc2c(NCCCNCCO)nc3ccccc3c12 |  |  | 1.47 | 3.24 | 0.605 | 2.01 | 1.89 | 3.85 |  |  | 1.71 | 3.33 | 1.67 | 5.65 | 5.67 | 0.922
O=C1N[C@@H]2[C@@H](O)[C@@H](O)[C@H](O)C[C@H]2c2cc3c(c(O)c21)OCCO3 | 0.154 | 0.796 | 0.162 | 0.978 | 0.157 | 1.13 | 0.272 | 1.38 | 0.392 | 1.58 | 0.246 | 1.04 | 0.27 | 0.976 | 0.892 | 0.116
O=C(NCCCCN1CCOCC1)c1cc2ccccc2o1 | > 100 | > 100 | > 100 | > 100 | > 100 | > 100 | > 100 | > 100 | > 100 | > 100 | > 100 | > 100 | > 100 | > 100 |  | 
CCOC(=O)C1=CCCC[C@H]1S(=O)(=O)Nc1ccc(F)cc1Cl | 19.9 | > 100 | 24.5 | 94.5 | 22.4 | 82.1 | 19.1 | 72.7 | 42.6 | > 100 | 25.5 | 96.7 | 20.3 | 89.3 | 58.3 | 15.1
O=C1NC(=C(Cl)Cl)/C(=N/S(=O)(=O)N2CCCCC2)N1 | 2.87 | > 100 | 1.7 | 3.14 | 3.27 | 11.2 | 1.61 | 3.04 | 12.4 | 25.4 | 2.06 | 4.54 | 3.18 | 10.7 | 3.33 | 1.75
COc1ccc2c(c1)C(=O)c1c-2n(CCCN(C)C)c(=O)c2ccccc12 | 0.0295 | 2.31 | 0.255 | 5.7 | 0.0517 | 0.454 | 0.922 | 2.5 | 0.377 | 1.72 | 0.483 | 1.87 | 0.624 | 5.99 | 4.57 | 0.886
O=C(O)c1cc(-c2ccc3cc4c(cc3c2)OCO4)nc2ccccc12 |  | > 100 |  | > 100 |  | 42.7 |  | > 100 |  | 75.1 |  | > 100 |  | > 100 | 87.9 | 
CNC(=O)c1c(C)oc2cc(Oc3ncnc4cc(OC)c(OC)cc34)ccc12 | > 100 | > 100 | > 100 | > 100 | > 100 | > 100 | > 100 | > 100 | 0.946 | 5.44 |  |  | 4.18 | > 100 | > 100 | 3.2
Nc1nc(/C=C\c2ccc([N+](=O)[O-])s2)nc(N2CCN(c3ccccc3)CC2)n1 | 14.8 | 49.4 | 14.3 | 34.5 | 24.1 | 59.1 | 13.6 | 30.8 | 0.0746 | 15.5 | 19.5 | 39.3 | 0.54 | 14.6 | 57.1 | 22.8
COc1ccc2ncn(-c3cc(O[C@H](C)c4ccccc4C(F)(F)F)c(C(N)=O)s3)c2c1 | 0.0637 | 13 | 1.19 | 7.74 | 0.088 | 2.99 | 0.142 | 4.58 | 0.0764 | 0.597 | 0.0989 | 3.23 | 0.31 | 7.18 | 6.44 | 0.143
COc1cc(/C=C2\CC3C4CC=C5C[C@@H](OC(C)=O)CC[C@]5(C)C4CC[C@]3(C)C2=O)ccc1OCCN1CCCCC1 (stereo partly drawn) | 2.07 | 5.53 |  |  | 3.02 | 11.6 | 1.99 | 3.66 | 1.71 | 5.07 | 2.09 | 3.79 |  |  |  | 
Cc1c(-c2cnccn2)ssc1=S |  | > 100 |  | > 100 |  | > 100 |  | > 100 |  | 59.7 |  | > 100 |  | 91.8 | 89.7 | 
COc1ccc(Nc2nc3cc(N)cc(N)c3nc2-c2ccccc2)cc1 | 14.9 | 28.1 | 20.6 | 57.4 | 26.8 | 89.9 | 16.8 | 30.5 |  |  | 17.6 | 36.3 | 14.3 | 46.5 | 52.6 | 19.9
COc1ccc(C2(Cl)c3ccccc3N(c3ccccc3)c3ccccc32)cc1 | 0.182 | 1.9 | 0.232 | 1.22 | 0.484 | 1.94 | 0.191 | 1.4 |  |  | 0.224 | 1.38 | 0.407 | 17.2 | 7.13 | 1.88

Structure (SMILES) | GI50 (MCF7 breast) [µM] | TGI (MCF7 breast) [µM] | GI50 (SN12C renal) [µM] | TGI (SN12C renal) [µM] | GI50 (NCI-H460 lung) [µM] | TGI (NCI-H460 lung) [µM] | GI50 (UACC-62 melanoma) [µM] | TGI (UACC-62 melanoma) [µM] | GI50 (A498 renal) [µM] | TGI (A498 renal) [µM] | GI50 (M14 melanoma) [µM] | TGI (M14 melanoma) [µM] | GI50 (HS 578T breast) [µM] | TGI (HS 578T breast) [µM] | TGI (HOP-92 NSCLC) [µM] | GI50 (HOP-92 NSCLC) [µM]
COc1c/c(=C2\C=c3ccccc3=N2)[nH]/c1=C\c1[nH]c(C)cc1C | 0.0464 | > 100 | 0.0782 | 59.5 | 0.0268 | > 100 | 0.0134 | 0.0268 | 0.242 | 7.47 | 0.64 | > 31.9 | 0.0131 | 0.433 | 1.97 | 0.111
COc1cc2c(cc1OC(C)C)[C@H](c1ccc(Cl)cc1)N(c1ccc(N(C)CC3CCC(N4CCN(C)C(=O)C4)CC3)cc1)C(=O)C2 (stereo partly drawn) | 0.271 | 3.61 | 2.95 | 9.15 | 0.531 | 4.43 | 0.521 | 3.52 | 1.38 | 6.49 | 2.72 | 7.86 | 3.48 | 13.1 | 4.85 | 1.98
CNC(=O)c1ccc(N2C(=S)N(c3cnc(C#N)c(C(F)(F)F)c3)C(=O)C23CCC3)cc1F | 99.8 | > 100 | > 100 | > 100 | > 100 | > 100 | > 70.5 | > 100 | > 53.2 | > 100 | > 100 | > 100 | > 100 | > 100 | > 100 | > 86.7
CCc1nc(N)nc(N)c1-c1ccc(Cl)c([N+](=O)[O-])c1 |  | > 89.7 |  | > 100 |  | > 100 |  | > 86.4 |  | > 96 |  | 98.8 |  | > 100 | > 87.1 | 
O=C(O)CCNCC(=O)O |  | > 100 |  | > 100 |  | > 100 |  | > 100 |  | > 100 |  | > 100 |  | > 100 | > 100 | 
CCOC(=O)c1cc(C(=O)c2ccc(OC)cc2)n2ccc(/C=C/c3cc[n+](CC(=O)c4ccc(OC)cc4)cc3)cc12 | 1.51 | 3.56 |  |  | 1.56 | 3.56 |  |  |  |  | 1.77 | 3.8 |  |  | 3.15 | 1.23
Cc1cc2c(C(=O)NC[C@H](C)c3ccccc3)c(O)c(O)cc2c(O)c1-c1c(C)cc2c(C(=O)NC[C@H](C)c3ccccc3)c(O)c(O)cc2c1O | 0.0685 | 4.2 | 0.436 | 10.6 | 0.0334 | 0.388 | 0.146 | 0.486 | 0.316 | 7.54 | 0.438 | 5.72 | 0.274 | 2.56 | 1 | 0.276
O=C(O)CSc1n[nH]c(=O)[nH]c1=O |  | > 100 |  | > 100 |  | > 100 |  | > 100 |  | > 100 |  | > 100 |  | > 100 |  | 
OCC1C(OCc2ccccc2)C(OCc2ccccc2)C(OCc2ccccc2)CN1Cc1ccccc1 (stereo not drawn) |  | 43.9 |  | 39.6 |  | 48.1 |  | > 100 |  |  |  | > 100 |  | > 100 | 44.8 | 
Cc1c(C)n(CCCN2CCN(C)CC2)c2ccc(Oc3cccc(C(=O)N4CCN(CCc5ccc(F)cc5)CC4)c3)cc12 | 1.59 | 3.22 | 1.54 | 3.09 | 1.86 | 3.45 | 1.87 | 3.58 |  |  |  |  | 2.05 | 4.51 |  | 
Cc1onc(-c2ccccc2)c1C(=O)N/N=C/c1cc(Cl)cc(Cl)c1O | 3.18 | > 100 | 4.58 | 60.5 | 3.6 | > 100 | 2.16 | 6.83 | 15 | 58.2 | 3.74 | 46.3 | 17.8 | > 100 |  | 
O=C(CN(/C=C/C(=O)C(F)(F)F)c1ccc(Cl)cc1)c1ccc(Cl)cc1 | 5.15 | 29.8 | 11.9 | 24.2 | 11.9 | 35.3 | 3.03 | 13.4 | 13.5 | 26.9 |  |  | 13.8 | 42.5 | 35.8 | 19.2
C=CN(C(=O)N1CCN(c2cc3c(cc2F)c(=O)c(C(=O)O)cn3C2CC2)CC1)c1nc(-c2ccc(OC)cc2)cs1 | 3.36 | > 100 | 3.14 | > 100 | 3.54 | > 100 |  |  | 2.93 | > 100 | 3.61 | > 100 | 3.22 | 14.5 | 5.57 | 2.45
C[C@@H](Oc1cc(-n2cnc3ccc(OC4CCN(C)CC4)cc32)sc1C(N)=O)c1ccccc1Cl | 0.00884 | 3.92 | 0.255 | 4.75 | 0.0126 | 3.19 | 0.033 | 4.62 | 0.0403 | 0.301 |  |  | 0.0419 | 0.597 | 2.78 | 0.0387
C=C(c1ccc(OC)c(/C=C/C(=O)c2ccc3c(c2)OCO3)c1)c1cc(OC)c(OC)c(OC)c1 | 0.913 | > 100 | 3.84 | > 100 | 2.34 | 6.21 | 1.32 | > 100 | 2.72 | > 100 |  |  | 4.65 | > 100 | > 100 | 1.78
OC(CNc1ccnc2cc(Cl)ccc12)CNc1ccnc2cc(Cl)ccc12 |  |  | 1.89 | 3.7 | 1.83 | 3.52 | 1.7 | 3.37 | 11 | 25.3 | 1.73 | 3.18 | 1.97 | 4.16 | 19.1 | 4.22
COc1ccccc1Nc1cc(O)c2c(=O)cc(-c3ccccc3)oc2c1 | 1.63 | > 100 | 3.5 | 17.6 | 3.37 | 12 | 2.39 | 12.8 | 3.08 | 13.9 |  |  | 3.61 | 32.6 | 23.7 | 3.76
